Here are results for three molecules from patent US12409169B2, “Composition comprising clay mineral complex for prevention, alleviation, and treatment of inflammatory bowel disease, preparation method for composition, and method for alleviation and treatment for inflammatory bowel disease” (Korea Institute Of Geoscience And Mineral Resources, priority 2019, dated 2025).

The nature of data set [1]: pharmacokinetic analysis after oral administration in SD rats. To be noted: 10 mg/kg based on vactosertib. The data set is classed as in vivo. The procedure: In order to confirm a change in plasma concentration in actual oral administration of the bentonite/vactosertib complex, a pharmacokinetic analysis test was performed using SD rats of about 7 weeks of age. The existing vactosertib powder, an aqueous solution dissolved with the vactosertib powder in a pH 3 buffer solution, and the bentonite/vactosertib complex were used as samples and a dose was set to 10 mg/kg based on the drug (that is, vactosertib) amount. Each sample was orally administered in rats and then the blood was collected by time, and preprocessed to analyze a plasma drug concentration.

A short description of data set [2]: elution test (drug release through semi-permeable membrane). Format: physicochemical. The method, then:
An elution test of vactosertib was performed to confirm a change in which the vactosertib was adsorbed onto bentonite and then released. At this time, in order to predict the drug release from the upper digestive tract and the lower digestive tract, the elution was performed under different pH conditions. To this end, the test was performed by using a 0.1 N HCl solution (pH 1.2), a 50 mM acetate buffer solution (pH 4.5), and a 50 mM phosphate buffer solution (pH 7.4) as eluates, respectively. At this time, in all the eluates, Tween80 was dissolved and used at a concentration of 0.1% to impart a sufficient elution environment of vactosertib. The vactosertib powder and the bentonite/vactosertib complex were formed to a dispersion to be 1 mg/mL based on the vactosertib concentration and 0.3 mL thereof was sealed in a semi-permeable membrane and then put in 30 mL of each eluate to perform the elution. Thereafter, each eluate was collected by 0.2 mL for each predetermined time, a drug concentration was analyzed to compare elution rates.

A short description of data set [3]: adsorption rate of vactosertib onto bentonite. Format: physicochemical. As to conditions: vactosertib 0.4 mg/ml, bentonite 0.5 mg/mL, pH 1. The method, then: The adsorption rates of vactosertib and bentonite according to the pH of a solvent were evaluated. At this time, considering that the vactosertib was not dissolved in neutral, but stated to be dissolved in about 1 mg/mL from pH 3, a test was performed by setting a reaction pH to pH 1, pH 2, and pH 3. First, 10 mg/mL of the vactosertib was dissolved in a 0.1 N hydrochloric acid aqueous solution and diluted with a hydrochloric acid aqueous solution or a phosphate buffer solution (pH 1: 0.1 N hydrochloric acid aqueous solution, pH 2, pH 3: phosphate buffer solution) corresponding to each pH to adjust the concentration to 1 mg/mL. […] Thereafter, a drug concentration of a supernatant obtained by centrifugation (3,000 rpm, 5 minutes) was analyzed. Through this, the drug amount adsorbed onto the bentonite was indirectly calculated as shown in Equation 1 by removing the remaining drug amount in the supernatant from the entirely applied drug (vactosertib) to calculate an adsorption rate. […] In addition, a difference in adsorption rate according to the concentration of vactosertib was measured. […] In addition, a difference in adsorption rate according to an absolute concentration was measured.

For data set [4], the system named is ulcerative colitis mouse model induced with DSS. Kind of data set: histopathological severity scores in ulcerative colitis mouse model induced with DSS. Format: in vivo, C57BL/6 mice. To be noted: DSS mice, Dunn's test. The procedure:
Animal tests were performed to confirm anti-inflammatory, anti-crypt cell damage, anti-ulcer, anti-edema, and anti-fibrosis effects of a vactosertib/bentonite complex using a mouse model of ulcerative colitis as one of inflammatory bowel diseases. C57BL/6 mice were selected as test animals, and in order to induce ulcerative colitis, a cycle in which an inflammation inducing substance, DSS was added in drinking water and supplied for 7 days, and then normal drinking water was supplied for 14 days was repeated. Such an inflammation inducing cycle was repeated 3 times to induce chronic inflammation, ulcer and fibrous conditions in the large intestine. To test animal groups except for control groups, from 3 weeks after a first inflammation inducing cycle was elapsed, bentonite, vactosertib, or a vactosertib/bentonite complex was administered twice a day (10 am, 4 pm), 5 days a week, and for total 6 weeks. The bentonite per 1 kg of converted mouse weight was administered with 106.8 mg, the vactosertib was administered with 20.0 mg, and the complex was administered with 126.8 mg. At this time, as the vactosertib/bentonite complex, the complex prepared in Test Example 5 was used. For each test group used in ulcerative colitis animal tests, inflammation inducing substances, test substances, doses of the test substances, and the number of test animals were shown in Table 7 below.
C57BL/6 mice used in the test were supplied from the Orient Bio Gapyeong Center (699-13, Mokdong-ri, Buk-yeon, Gapyeong-gun, Gyeonggi-do), and about 6-week-old during obtaining. For about 7 days after obtaining, the rats were quarantined and purified and then healthy animals were used for the test. When the induced material was administered, the test animals were about 8-week-old, and 52 mice were used. The test animals were bred in the 2nd floor of Clean Animal Room, Bioscience Research Institute, Research Institute of Medical Science at Inha University, and circulated in at least 10 times/hour and bred under conditions of a temperature of 22-4° C., relative humidity of 50±20%, and illuminance of 150 to 300 Lux of lighting on for 12 hours (lighting: 08:00 to 20:00). A radiation solid feed (FeedLab GMO Free Rodent Diet GF2005) for rodents was free-taken using a feeder and water sterilized by an ultraviolet-ray flowing water sterilizer and high-pressure vapor after reverse osmosis was free-taken using a polysulfonate-made drinking water bottle (300 ml).
In order to induce ulcerative colitis, 2% DSS was added in drinking water of mice and continuously supplied for first 7 days of every test cycle (3 weeks). The test substances were orally administered 2 times a day, 5 days a week, and for a total of 6 weeks at the same time of second DSS induction (FIG. 14). […]
In order to evaluate a treatment effect of test substances on ulcerative colitis, after the end of the test, the animal was anesthetized, opened, and bled and then a histopathological test was performed for each individual. Histopathological findings were subdivided and scored into severity changes of inflammation, crypt cell damage, ulcer, edema, and fibrosis as shown in Table 8 below. […]
Statistical analysis was performed using Graphpad Prism version 8.01, and a minimum unit of significance was set to p<0.05. Since all measured histopathological indexes were nonparametric data, the indexes were represented by a median, 25% to 75% values (in the box), and minimum-maximum values (both ends) in the graph (FIGS. 15 to 20). […]

For a further data set, the system named is interleukin 6 (IL-6). Kind of data set: immunohistochemical IL-6 staining of large intestine tissue in DSS ulcerative colitis mouse model. The data set is classed as in vivo, C57BL/6 mice. As to conditions: DSS 2% mice. The method, then: Animal tests were performed to confirm anti-inflammatory, anti-crypt cell damage, anti-ulcer, anti-edema, and anti-fibrosis effects of a vactosertib/bentonite complex using a mouse model of ulcerative colitis as one of inflammatory bowel diseases. C57BL/6 mice were selected as test animals, and in order to induce ulcerative colitis, a cycle in which an inflammation inducing substance, DSS was added in drinking water and supplied for 7 days, and then normal drinking water was supplied for 14 days was repeated. Such an inflammation inducing cycle was repeated 3 times to induce chronic inflammation, ulcer and fibrous conditions in the large intestine. […]
In order to observe an immunohistochemical change of a large intestine tissue, a tissue fixed to a 10% neutral buffer formalin solution was sliced, attached to a coating slide, and deparaffinized, and then stained, and IHC of reacting with antibodies IL-6 (Interleukin-6), α-SMA ((α-smooth muscle actin), and TGF-β (transforming growth factor beta) on each slide was requested to an external institute (Notus) and the test was performed. In an individual-specific tissue slide, three constant zones were specified and imaged 100 times, a stained portion to the total area was measured, and a mean value was calculated (Zen 2.3 blue edition, Carl Zeiss, Germany). […]

Several values for one entry are separate records, joined by “and”; a condition that tells them apart may be missing. Equal values may be shown once. Read-outs that look alike come from different tables or passages of the source.

Take `Cc1cccc(-c2[nH]c(CNc3ccccc3F)nc2-c2ccc3ncnn3c2)n1` [Vactosertib aqueaous solution]: in data set [1], the AUCinf was found to be 111.97 ± 33.28 µg·min/mL, the AUClast is 111.73 ± 33.05 µg·min/mL, the Cmax is 2770 ± 550 ng/mL and the time to peak (Tmax) was 15 ± 0 min. Besides, the Tmax in data set [1] (listed as vactosertib aqueous solution) is 15 min and 15 ± 0 min. For the same molecule, the half-life in data set [1] (SD, rat, plasma, po, 10 mg/kg) is 45.9 ± 6.84 min. For the same molecule, the Cmax in data set [1] (SD, rat, plasma, po, 10 mg/kg, read-out: maximum plasma concentration Cmax) stood at 2770 ± 550 ng/mL.

As for `Cc1cccc(-c2[nH]c(CNc3ccccc3F)nc2-c2ccc3ncnn3c2)n1` [Vactosertib powder], the elution rate result in data set [2] (0.1 N HCl solution (pH 1.2), 0.1% Tween80) is recorded as “rapidly eluted”. Besides, the elution rate entry in data set [2] (at a higher pH than pH 1.2) is on record as “significantly decreased”. Besides, in data set [1], the AUCinf is 45.46 ± 27.67 µg·min/mL, the AUClast was 44.65 ± 28.60 µg·min/mL, the Cmax turned out to be 610 ± 570 ng/mL and the Tmax was determined as 67.5 ± 75 min. Besides, the t1/2 in data set [1] amounted to 51.96 ± 21.93 min.

As to `Cc1cccc(-c2[nH]c(CNc3ccccc3F)nc2-c2ccc3ncnn3c2)n1` [vactosertib, N-((4-([1,2,4]triazolo[1,5-a]pyridine-6-yl)-5-(6-methylpyridin-2-yl)-1H-imidazol-2-yl)methy 1)-2-fluoroaniline], the Adsorption rate in data set [3] is reported as 28.0 ± 0.8%. Moreover, the “median of inflammation index compared with positive control group (G2)” value in data set [4] (FIG. 15) is “slightly low”. Besides, the “median of crypt cell damage index compared with positive control group (G2)” value in data set [4] (FIG. 16) is on record as “low in a median of a crypt cell damage index, but had no statistical significance”. Moreover, in data set [4] (FIG. 17), the “median of ulcer index compared with positive control group (G2)” value was “low in a median of an ulcer index, but had no statistical significance”. Moreover, in data set [4] (FIG. 19), the “median of fibrosis index compared with positive control group (G2)” value was “slightly low”. Moreover, the “median of summed severity scores (except fibrosis) compared with positive control group (G2)” value in data set [4] (FIG. 20) was “low in a median of an ulcer index, but had no statistical significance”. Also, in the data set on interleukin 6 (IL-6), the “reduction of IL-6 staining area as compared with G2 group” value came to 23.0%.
